One compound from patent publication US8569372B2, “Method for preventing or treating a disease, disorder or condition induced by retina ischemia” (priority 2011, dated 2013) can be followed below.

One experiment relates to RGC-5 cells. The experiment in a line: RGC-5 cell viability under H2O2 induced oxidative stress. It is filed as cell-based. The settings on record: RGC5, then 500 μM H2O2 24 hours, H2O2 alone 42.05±6.10%, n=6, read-out: RGC-5 cell viability (control: 100%). The protocol:
The RGC-5 cell line was obtained from the American Type Culture Collection (ATCC, No. CRL-2302, Manassas, Va., USA). The RGC-5 cell line represents a lineage of neuronal precursor cells. The RGC-5 cells were maintained in Dulbecco's modified Eagle's medium (DMEM; Falcon, Becton Dickinson, N.J., U.S.A.) containing 10% fetal calf serum, 100 U/mL penicillin and 100 μg/mL streptomycin (Sigma-Aldrich) in a humidified atmosphere of 95% air and 5% CO2 at 37° C. Cell viability was evaluated by counting the cell number using a haemocytometer under an optical microscope.
In the enzyme-linked immunosorbent assay (ELISA), the cells (2.5×10^4 in each well) were plated into 96-well plates. Each well contains 200 μl of DMEM (control) without or with H2O2. Next, the cells were incubated at 37° C. for 1 day and then shifted to serum free medium for the following day. In order to stimulate oxidative stress, 500 μM H2O2 (Sigma-Aldrich 18304/k0250, St Louis, Mo., USA) was then added for 24 hours as described elsewhere. Depending on the experimental protocol, SAC or vehicle was added to some samples 15 minutes before adding H2O2.

For experiment [1], the system named is cholinergic amacrine cells (ChAT immunoreactivity). In words: ChAT immunofluorescence of the retina after ischaemia/reperfusion. It is filed as in vivo, Wistar rats. The settings on record: 100 μM SAC pre-treatment. The protocol:
The rats (200-250 g) were anaesthetized and placed in a stereotaxic frame. The anterior chamber of one eye was cannulated with a 30-gauge needle connected to a 0.9% saline reservoir; this caused a high IOP (HIOP) of 120 mmHg for 60 minutes. Eye fundus whitening and a low ERG response confirmed induction of an ischaemic insult. A sham procedure was carried out on the controls. Drug administration involved the pre-administration (15-minute before 60-minute HIOP induced retinal ischaemia) of SAC (25, 50, 100 μM) or vehicle (saline; control). The ischemic eye of each test rat was treated with or without a single intravitreous injection of 5 μl of the test compound. In addition, SAC (100 μM) was administered to the non-ischaemic eye (normal) to see whether SAC has any adverse effects. In both cases, the paired normal eye was untreated. The rats were sacrificed and intracardially perfused with 0.9% normal saline (w/v). Then the rat retinas were removed, fixed with 4% (w/v) paraformaldehyde for 45 minutes and then transferred to 30% sucrose for cryosectioning. Sampling was carried out one or seven days after the sham-operation or induction of retinal ischaemia. […] The retinal sections were examined using a fluorescence microscope (Olympus BX61, Center Valley, Pa., USA).

In a further experiment the test system is MMP-9. In words: ELISA of MMP-9 protein in RGC-5 cells under H2O2 oxidative stress. It is filed as cell-based. As to conditions: 100 μM SAC 15-minute pre-treatment, 500 μM H2O2 24 hours; control 29.33±4.93, H2O2 100.70±18.80; n=6. As to the method: In the enzyme-linked immunosorbent assay (ELISA), the cells (2.5×10^4 in each well) were plated into 96-well plates. Each well contains 200 μl of DMEM (control) without or with H2O2. Next, the cells were incubated at 37° C. for 1 day and then shifted to serum free medium for the following day. In order to stimulate oxidative stress, 500 μM H2O2 (Sigma-Aldrich 18304/k0250, St Louis, Mo., USA) was then added for 24 hours as described elsewhere. Depending on the experimental protocol, SAC or vehicle was added to some samples 15 minutes before adding H2O2. […] Total protein was determined using a bicinchoninic acid protein kit (Thermo Fisher Scientific Inc., IL, U.S.A.). The HIF-1 Alpha/VEGF/MMP-9 levels in the cells/medium were measured using various ELISA kits, namely HIF-1 Alpha (Uscn Life Science Inc., Wuhan 430056, China); VEGF-A (BMS277/2, Bender […], Austria) and MMP-9 Duoset (D911, R&D, Minneapolis, Minn., U.S.A.). […] The HIF-1 Alpha/VEGF/MMP-9 concentration of each sample was determined by constructing a standard curve using 100 μl of sample diluent containing various amounts of HIF-1 Alpha/VEGF/MMP-9 pure protein (0-1000 pg/ml). […] The absorbance (optical intensity, O.D.) was detected at 450 nm by spectrophotometer (ELx800, Biotek, Winooski, Vt., U.S.A.). […]

As for `C=CCSC[C@H](N)C(=O)O` [SAC, S-allyl L-cysteine], the viability at 25 µM in the experiment with RGC-5 cells (25 μM SAC 15-minute pre-incubation) turned out to be 47.7 ± 4.53%. In addition, the viability at 50 µM with RGC-5 cells (50 μM SAC 15-minute pre-incubation) was 57.5 ± 3.48%. Also, in the experiment on RGC-5 cells (100 μM SAC 15-minute pre-incubation), the viability at 100 µM was 70.2 ± 3.32%. The “ChAT immunopositive amacrine cell bodies per field” value was 26±2 per field in experiment [1] (1 day after I/R, sham 39±3, vehicle 14±1) and 24±5 per field in experiment [1] (7 days after I/R, sham 38±3, vehicle 10±5). Further, in the experiment on MMP-9, the “MMP-9 protein level (ELISA)” value came out at 52.55 ± 2.72 pg/mL.

For orientation: viability means a read-out of living cells in per cent, often relative to untreated cells.
